# Results published in patent US7358268B2, “Imidazole derivatives as factor Xa inhibitors” (Sanofi-Aventis Deutschland GmbH, priority 2002, dated 2008).
# Biological target: T1, human factor Xa (Homo sapiens, UniProt P00742)
# T1 construct: 25 μl human factor Xa (Enzyme Research Laboratories, Inc; South Bend, Ind.) in TBS-PEG; purchased Enzyme Research Laboratories, Inc; South Bend, Ind
# Assay: Factor Xa assay (chromogenic, purified enzyme)
# Assay type: biochemical
# Conditions: inhibition constant for factor Xa; chromogenic substrate S-2765 140 μM, enzyme 0.5 nM, 25° C., pH 7.8; Ki calculated from IC50 (Ki=IC50/{1+(substrate concentration/Km)}); read-out: Ki(FXa)
# Protocol: The ability of the compounds of the formula I to inhibit factor Xa or factor VIIa or other enzymes like thrombin, plasmin, or trypsin can be assessed by determining the concentration of the compound of the formula I that inhibits enzyme activity by 50%, i. e. the IC50 value, which was related to the inhibition constant Ki. Purified enzymes were used in chromogenic assays. The concentration of inhibitor that causes a 50% decrease in the rate of substrate hydrolysis was determined by linear regression after plotting the relative rates of hydrolysis (compared to the uninhibited control) versus the log of the concentration of the compound of formula I. For calculating the inhibition constant Ki, the IC50 value was corrected for competition with substrate using the formula Ki=IC50/{1+(substrate concentration/Km)} wherein Km is the Michaelis-Menten constant (Chen and Prusoff, Biochem. Pharmacol. 22 (1973), 3099-3108; I. H. Segal, Enzyme Kinetics, 1975, John Wiley & Sons, New York, 100-125; which were incorporated herein by reference). a) Factor Xa Assay
# In the assay for determining the inhibition of factor Xa activity TBS-PEG buffer (50 mM Tris-HCl, pH 7.8, 200 mM NaCl, 0.05% (w/v) PEG-8000, 0.02% (w/v) NaN3) was used. The IC50 was determined by combining in appropriate wells of a Costar half-area microtiter plate 25 μl human factor Xa (Enzyme Research Laboratories, Inc.; South Bend, Ind.) in TBS-PEG; 40 μl 10% (v/v) DMSO in TBS-PEG (uninhibited control) or various concentrations of the compound to be tested diluted in 10% (v/v) DMSO in TBS-PEG; and substrate S-2765 (N(α)-benzyloxycarbonyl-D-Arg-Gly-L-Arg-p-nitroanilide; Kabi Pharmacia, Inc.; Franklin, Ohio) in TBS-PEG.
# The assay was performed by pre-incubating the compound of formula I plus enzyme for 10 min. Then the assay was initiated by adding substrate to obtain a final volume of 100 μl. The initial velocity of chromogenic substrate hydrolysis was measured by the change in absorbance at 405 nm using a Bio-tek Instruments kinetic plate reader (Ceres UV900HDi) at 25° C. during the linear portion of the time course (usually 1.5 min after addition of substrate). The enzyme concentration was 0.5 nM and substrate concentration was 140 μM.
# T1 sequence (P00742 235-488 limits assumed): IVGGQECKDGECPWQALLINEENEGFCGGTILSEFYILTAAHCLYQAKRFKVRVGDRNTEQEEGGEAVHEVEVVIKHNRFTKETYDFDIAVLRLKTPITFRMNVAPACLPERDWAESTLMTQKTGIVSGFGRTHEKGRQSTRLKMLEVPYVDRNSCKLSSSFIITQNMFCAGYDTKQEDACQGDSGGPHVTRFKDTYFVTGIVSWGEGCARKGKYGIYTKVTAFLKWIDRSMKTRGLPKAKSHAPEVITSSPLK
# T1 sequence (P00742 41-179 partner limits assumed): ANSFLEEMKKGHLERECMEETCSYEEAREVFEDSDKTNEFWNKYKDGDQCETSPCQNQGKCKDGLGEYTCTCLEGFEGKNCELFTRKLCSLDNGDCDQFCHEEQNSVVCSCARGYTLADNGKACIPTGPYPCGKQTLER
row,SMILES,Ki [µM]
1,"CC(C)N1CCC(NC(=O)c2cncn2Cc2cc(-c3ccc(Cl)s3)on2)CC1 [Example 1, 3-[5-(5-Chloro-thiophen-2-yl)-isoxazol-3-ylmethyl]-3H-imidazole-4-carboxylic acid (1-isopropyl-piperidin-4-yl)-amide]",0.065
2,"CCc1nc(C)c(C(=O)NC2CCN(C(C)C)CC2)n1Cc1cc(-c2ccc(Cl)s2)on1 [Example 5, 3-[5-(5-Chloro-thiophen-2-yl)-isoxazol-3-ylmethyl]-2-ethyl-5-methyl-3H-imidazole-4-carboxylic acid (1-isopropyl-piperidin-4-yl)-amide]",0.027
3,"CCc1nc(C(=O)NC2CCN(C(C)C)CC2)c(C)n1Cc1cc(-c2ccc(Cl)s2)on1 [Example 6, 1-[5-(5-Chloro-thiophen-2-yl)-isoxazol-3-ylmethyl]-2-ethyl-5-methyl-1H-imidazole-4-carboxylic acid (1-isopropyl-piperidin-4-yl)-amide]",0.53
4,"Cc1nc(I)n(Cc2cc(-c3ccc(Cl)s3)on2)c1C(=O)NC1CCN(C(C)C)CC1 [Example 7, 3-[5-(5-Chloro-thiophen-2-yl)-isoxazol-3-ylmethyl]-2-iodo-5-methyl-3H-imidazole-4-carboxylic acid (1-isopropyl-piperidin-4-yl)-amide]",0.001
5,"COCc1ncc(C(=O)NC2CCN(C(C)C)CC2)n1Cc1cc(-c2ccc(Cl)s2)on1 [Example 9, 3-[5-(5-Chloro-thiophen-2-yl)-isoxazol-3-ylmethyl]-2-methoxymethyl-3H-imidazole-4-carboxylic acid (1-isopropyl-piperidin-4-yl)-amide]",0.086
6,"CC(C)N1CCC(NC(=O)c2cnc(C3CC3)n2Cc2cc(-c3ccc(Cl)s3)on2)CC1 [Example 11, 3-[5-(5-Chloro-thiophen-2-yl)-isoxazol-3-ylmethyl]-2-cyclopropyl-3H-imidazole-4-carboxylic acid (1-isopropyl-piperidin-4-yl)-amide]",0.004
7,"COCCc1ncc(C(=O)NC2CCN(C(C)C)CC2)n1Cc1cc(-c2ccc(Cl)s2)on1 [Example 14, 3-[5-(5-Chloro-thiophen-2-yl)-isoxazol-3-ylmethyl]-2-(2-methoxy-ethyl)-3H-imidazole-4-carboxylic acid (1-isopropyl-piperidin-4-yl)-amide]",0.401
8,"CC(C)c1ncc(C(=O)NC2CCN(C(C)C)CC2)n1Cc1cc(-c2ccc(Cl)s2)on1 [Example 16, 3-[5-(5-Chloro-thiophen-2-yl)-isoxazol-3-ylmethyl]-2-isopropyl-3H-imidazole-4-carboxylic acid (1-isopropyl-piperidin-4-yl)-amide]",0.254
9,"Cc1nc(-c2ccccc2)n(Cc2cc(-c3ccc(Cl)s3)on2)c1C(=O)NC1CCN(C(C)C)CC1 [Example 18, 3-[5-(5-Chloro-thiophen-2-yl)-isoxazol-3-ylmethyl]-5-methyl-2-phenyl-3H-imidazole-4-carboxylic acid (1-isopropyl-piperidin-4-yl)-amide]",0.007
10,"Cc1nc(Br)n(Cc2cc(-c3ccc(Cl)s3)on2)c1C(=O)NC1CCN(C(C)C)CC1 [Example 26, 2-Bromo-3-[5-(5-chloro-thiophen-2-yl)-isoxazol-3-ylmethyl]-5-methyl-3H-imidazole-4-carboxylic acid (1-isopropyl-piperidin-4-yl)-amide]",0.003
11,"CCOC(=O)c1ncc(C(=O)NC2CCN(C(C)C)CC2)n1Cc1cc(-c2ccc(Cl)s2)on1 [Example 37, 1-[5-(5-Chloro-thiophen-2-yl)-isoxazol-3-ylmethyl]-5-(1-isopropyl-piperidin-4-ylcarbamoyl)-1H-imidazole-2-carboxylic acid ethyl ester]",0.008
12,"CC(C)N1CCC(NC(=O)c2nc(C(=O)OC(C)(C)C)cn2Cc2cc(-c3ccc(Cl)s3)on2)CC1 [Example 38, 1-[5-(5-Chloro-thiophen-2-yl)-isoxazol-3-ylmethyl]-2-(1-isopropyl-piperidin-4-ylcarbamoyl)-1H-imidazole-4-carboxylic acid tert-butyl ester]",0.174

# Continued, values first:
row,Ki [µM],SMILES
1,0.007,"CC(C)N1CCC(NC(=O)c2c(Cl)nc(-c3ccccc3)n2Cc2cc(-c3ccc(Cl)s3)on2)CC1 [Example 3, 5-Chloro-3-[5-(5-chloro-thiophen-2-yl)-isoxazol-3-ylmethyl]-2-phenyl-3H-imidazole-4-carboxylic acid (1-isopropyl-piperidin-4-yl)-amide]"
2,0.018,"CC(C)N1CCC(NC(=O)c2cnc(-c3c(F)cccc3F)n2Cc2cc(-c3ccc(Cl)s3)on2)CC1 [Example 12, 3-[5-(5-Chloro-thiophen-2-yl)-isoxazol-3-ylmethyl]-2-(2,6-difluoro-phenyl)-3H-imidazole-4-carboxylic acid (1-isopropyl-piperidin-4-yl)-amide]"
3,0.056,"CC(C)N1CCC(NC(=O)c2cnc(-c3c(Cl)cccc3Cl)n2Cc2cc(-c3ccc(Cl)s3)on2)CC1 [Example 15, 3-[5-(5-Chloro-thiophen-2-yl)-isoxazol-3-ylmethyl]-2-(2,6-dichloro-phenyl)-3H-imidazole-4-carboxylic acid (1-isopropyl-piperidin-4-yl)-amide]"
4,0.112,"CC(C)N1CCC(NC(=O)c2cnc(-c3ccccn3)n2Cc2cc(-c3ccc(Cl)s3)on2)CC1 [Example 17, 3-[5-(5-Chloro-thiophen-2-yl)-isoxazol-3-ylmethyl]-2-pyridin-2-yl-3H-imidazole-4-carboxylic acid (1-isopropyl-piperidin-4-yl)-amide]"
5,0.358,"CC(C)N1CCC(NC(=O)c2cnc(-c3cccnc3)n2Cc2cc(-c3ccc(Cl)s3)on2)CC1 [Example 20, 3-[5-(5-Chloro-thiophen-2-yl)-isoxazol-3-ylmethyl]-2-pyridin-3-yl-3H-imidazole-4-carboxylic acid (1-isopropyl-piperidin-4-yl)-amide]"
6,0.243,"Cc1nc(-c2ncc(C(=O)NC3CCN(C(C)C)CC3)n2Cc2cc(-c3ccc(Cl)s3)on2)cs1 [Example 21, 3-[5-(5-Chloro-thiophen-2-yl)-isoxazol-3-ylmethyl]-2-(2-methyl-thiazol-4-yl)-3H-imidazole-4-carboxylic acid (1-isopropyl-piperidin-4-yl)-amide]"
7,0.006,"CCS(=O)(=O)c1ncc(C(=O)NC2CCN(C(C)C)CC2)n1Cc1cc(-c2ccc(Cl)s2)on1 [Example 23, 3-[5-(5-Chloro-thiophen-2-yl)-isoxazol-3-ylmethyl]-2-ethanesulfonyl-3H-imidazole-4-carboxylic acid (1-isopropyl-piperidin-4-yl)-amide]"
8,0.022,"Cc1nc(C(N)=O)n(Cc2cc(-c3ccc(Cl)s3)on2)c1C(=O)NC1CCN(C(C)C)CC1 [Example 24, 3-[5-(5-Chloro-thiophen-2-yl)-isoxazol-3-ylmethyl]-5-methyl-3H-imidazole-2,4-dicarboxylic acid 2-amide 4-[(1-isopropyl-piperidin-4-yl)-amide]]"
9,0.14,"CC(C)N1CCC(NC(=O)c2cncn2CC(=O)Nc2ccc(Cl)cn2)CC1 [Example 29, 3-[(5-Chloro-pyridin-2-ylcarbamoyl)-methyl]-3H-imidazole-4-carboxylic acid (1-isopropyl-piperidin-4-yl)-amide]"
10,0.035,"COCc1ncc(C(=O)NC2CCN(C(C)C)CC2)n1CC(=O)Nc1ccc(Cl)cc1 [Example 30, 3-[(4-Chloro-phenylcarbamoyl)-methyl]-2-methoxymethyl-3H-imidazole-4-carboxylic acid (1-isopropyl-piperidin-4-yl)-amide]"
11,0.103,"CC(C)N1CCC(NC(=O)c2c(Cl)nc(-c3ccccc3)n2CC(=O)Nc2ccc(Cl)cn2)CC1 [Example 33, 5-Chloro-3-[(5-chloro-pyridin-2-ylcarbamoyl)-methyl]-2-phenyl-3H-imidazole-4-carboxylic acid (1-isopropyl-piperidin-4-yl)-amide]"
12,0.117,"CC(C)N1CCC(NC(=O)c2nc(C(=O)O)cn2Cc2cc(-c3ccc(Cl)s3)on2)CC1 [Example 39, 1-[5-(5-Chloro-thiophen-2-yl)-isoxazol-3-ylmethyl]-2-(1-isopropyl-piperidin-4-ylcarbamoyl)-1H-imidazole-4-carboxylic acid]"
13,0.02,"COC(=O)c1cn(Cc2cc(-c3ccc(Cl)s3)on2)c(C(=O)NC2CCN(C(C)C)CC2)n1 [Example 40, 1-[5-(5-Chloro-thiophen-2-yl)-isoxazol-3-ylmethyl]-2-(1-isopropyl-piperidin-4-ylcarbamoyl)-1H-imidazole-4-carboxylic acid methyl ester]"
